37 molecules from the NIST ThermoML archive (doi:10.1016/j.fluid.2014.11.020) can be followed below.

This series can be described thus: activity coefficient (dimensionless); of the first substance listed, at infinite dilution; xn = mol fraction of the nth substance listed. Particulars: Liquid, Chromatography, x1 = 0.

Numbers after ± are expanded uncertainties.

With `ClCCl` [dichloromethane] + CCCCCCCCn1cc[n+](COCCCOC[n+]2ccn(CCCCCCCC)c2C)c1C.N#C[N-]C#N.N#C[N-]C#N, the activity coefficient (323.15 K) amounted to 0.28 ± 0.03, the activity coefficient (333.15 K) stood at 0.29 ± 0.03 and the activity coefficient (343.15 K) amounted to 0.31 ± 0.03.

For the molecule `ClCCl` [dichloromethane] + CCCCCCCCn1cc[n+](COCCCOC[n+]2ccn(CCCCCCCC)c2C)c1C.O=S(=O)([N-]S(=O)(=O)C(F)(F)F)C(F)(F)F.O=S(=O)([N-]S(=O)(=O)C(F)(F)F)C(F)(F)F, the activity coefficient (323.15 K) turned out to be 0.3 ± 0.03, the activity coefficient (333.15 K) came to 0.3 ± 0.03 and the activity coefficient (343.15 K) is 0.32 ± 0.03.

For the molecule `ClCCl` [dichloromethane] + CCCOC[n+]1ccc(N(C)C)cc1.O=S(=O)([N-]S(=O)(=O)C(F)(F)F)C(F)(F)F, the activity coefficient is 0.57 ± 0.04 (323.15 K), 0.62 ± 0.04 (333.15 K) and 0.63 ± 0.04 (343.15 K).

Take `ClCCl` [dichloromethane] + CCCOC[n+]1ccn(C)c1.F[B-](F)(F)F: the activity coefficient reads like this: (323.15 K) 1.07 ± 0.07; (333.15 K) 1.16 ± 0.07; (343.15 K) 1.19 ± 0.08.

Take `ClCCl` [dichloromethane] + CCCOC[n+]1ccn(C)c1.N#C[N-]C#N: the activity coefficient was determined as 0.69 ± 0.05 (323.15 K), 0.74 ± 0.05 (333.15 K) and 0.78 ± 0.05 (343.15 K).

For the molecule `ClCCl` [dichloromethane] + CCCOC[n+]1ccn(C)c1.O=S(=O)([N-]S(=O)(=O)C(F)(F)F)C(F)(F)F, the activity coefficient reads like this: (323.15 K) 0.71 ± 0.05; (333.15 K) 0.79 ± 0.05; (343.15 K) 0.75 ± 0.05.

Take `ClCCl` [dichloromethane] + CCCOC[n+]1ccn(Cc2ccccc2)c1.F[B-](F)(F)F: the activity coefficient is, setting by setting: (323.15 K) 0.78 ± 0.05; (333.15 K) 0.78 ± 0.05; (343.15 K) 0.79 ± 0.05.

Consider `ClCCl` [dichloromethane] + CCCOC[n+]1ccn(Cc2ccccc2)c1.N#C[N-]C#N, for which the activity coefficient is, setting by setting: (323.15 K) 0.58 ± 0.04; (333.15 K) 0.63 ± 0.04; (343.15 K) 0.68 ± 0.05.

Take `ClCCl` [dichloromethane] + CCCOC[n+]1ccn(Cc2ccccc2)c1.O=S(=O)([N-]S(=O)(=O)C(F)(F)F)C(F)(F)F: the activity coefficient was 0.52 ± 0.04 (323.15 K), 0.44 ± 0.04 (333.15 K) and 0.37 ± 0.03 (343.15 K).

In the case of `ClCCl` [dichloromethane] + CN(C)c1cc[n+](COCCCOC[n+]2ccc(N(C)C)cc2)cc1.O=S(=O)([N-]S(=O)(=O)C(F)(F)F)C(F)(F)F.O=S(=O)([N-]S(=O)(=O)C(F)(F)F)C(F)(F)F, the activity coefficient is, setting by setting: (323.15 K) 0.52 ± 0.04; (333.15 K) 0.54 ± 0.04; (343.15 K) 0.56 ± 0.04.

Regarding `ClCCl` [dichloromethane] + Cn1cc[n+](COCCCOC[n+]2ccn(C)c2)c1.N#C[N-]C#N.N#C[N-]C#N, the activity coefficient reads like this: (323.15 K) 0.73 ± 0.05; (333.15 K) 0.8 ± 0.05; (343.15 K) 0.86 ± 0.06.

As for `ClCCl` [dichloromethane] + Cn1cc[n+](COCCCOC[n+]2ccn(C)c2)c1.O=S(=O)([N-]S(=O)(=O)C(F)(F)F)C(F)(F)F.O=S(=O)([N-]S(=O)(=O)C(F)(F)F)C(F)(F)F, the activity coefficient (323.15 K) was determined as 0.55 ± 0.04, the activity coefficient (333.15 K) was 0.61 ± 0.04 and the activity coefficient (343.15 K) amounted to 0.43 ± 0.04.

Take `CCOCC` [diethyl ether] + CCCCCCCCn1cc[n+](COCCC)c1C.O=S(=O)([N-]S(=O)(=O)C(F)(F)F)C(F)(F)F: the activity coefficient runs as follows: (323.15 K) 1.13 ± 0.07; (333.15 K) 1.11 ± 0.07.

In the case of `CCOCC` [diethyl ether] + CCCCCCCCn1cc[n+](COCCCOC[n+]2ccn(CCCCCCCC)c2C)c1C.N#C[N-]C#N.N#C[N-]C#N, the activity coefficient (323.15 K) is 2.41 ± 0.16, the activity coefficient (333.15 K) was 2.33 ± 0.16 and the activity coefficient (343.15 K) is 2.13 ± 0.14.

For `CCOCC` [diethyl ether] + CCCCCCCCn1cc[n+](COCCCOC[n+]2ccn(CCCCCCCC)c2C)c1C.O=S(=O)([N-]S(=O)(=O)C(F)(F)F)C(F)(F)F.O=S(=O)([N-]S(=O)(=O)C(F)(F)F)C(F)(F)F, the activity coefficient worked out at 0.86 ± 0.06 (323.15 K), 0.88 ± 0.06 (333.15 K) and 0.92 ± 0.06 (343.15 K).

Regarding `CCOCC` [diethyl ether] + CCCOC[n+]1ccn(C)c1.F[B-](F)(F)F, the activity coefficient (323.15 K) is 10.4 ± 0.71 and the activity coefficient (333.15 K) is 10.6 ± 0.72.

With `CCOCC` [diethyl ether] + CCCOC[n+]1ccn(C)c1.O=S(=O)([N-]S(=O)(=O)C(F)(F)F)C(F)(F)F, the activity coefficient is, setting by setting: (323.15 K) 2.21 ± 0.15; (333.15 K) 2.23 ± 0.15.

Turning to `CCOCC` [diethyl ether] + CCCOC[n+]1ccn(Cc2ccccc2)c1.F[B-](F)(F)F, the activity coefficient (323.15 K) was 6.03 ± 0.41 and the activity coefficient (333.15 K) is 5.79 ± 0.39.

As for `CCOCC` [diethyl ether] + CN(C)c1cc[n+](COCCCOC[n+]2ccc(N(C)C)cc2)cc1.O=S(=O)([N-]S(=O)(=O)C(F)(F)F)C(F)(F)F.O=S(=O)([N-]S(=O)(=O)C(F)(F)F)C(F)(F)F, the activity coefficient runs as follows: (323.15 K) 2.46 ± 0.17; (333.15 K) 2.47 ± 0.17; (343.15 K) 2.43 ± 0.17.

With `CC(C)OC(C)C` [diisopropyl ether] + CCCCCCCCn1cc[n+](COCCC)c1C.N#C[N-]C#N, the activity coefficient by setting is: (323.15 K) 4.17 ± 0.28; (333.15 K) 4.05 ± 0.28.

On to `CC(C)OC(C)C` [diisopropyl ether] + CCCCCCCCn1cc[n+](COCCC)c1C.O=S(=O)([N-]S(=O)(=O)C(F)(F)F)C(F)(F)F, for which the activity coefficient (323.15 K) came out at 1.95 ± 0.13, the activity coefficient (333.15 K) stood at 1.86 ± 0.13 and the activity coefficient (343.15 K) was 1.82 ± 0.12.

For `CC(C)OC(C)C` [diisopropyl ether] + CCCCCCCCn1cc[n+](COCCCOC[n+]2ccn(CCCCCCCC)c2C)c1C.N#C[N-]C#N.N#C[N-]C#N, the activity coefficient (323.15 K) is 4.38 ± 0.3, the activity coefficient (333.15 K) came to 4.07 ± 0.28 and the activity coefficient (343.15 K) was 3.93 ± 0.27.

As for `CC(C)OC(C)C` [diisopropyl ether] + CCCCCCCCn1cc[n+](COCCCOC[n+]2ccn(CCCCCCCC)c2C)c1C.O=S(=O)([N-]S(=O)(=O)C(F)(F)F)C(F)(F)F.O=S(=O)([N-]S(=O)(=O)C(F)(F)F)C(F)(F)F, the activity coefficient reads like this: (323.15 K) 1.54 ± 0.1; (333.15 K) 1.56 ± 0.1; (343.15 K) 1.54 ± 0.1.

Take `CC(C)OC(C)C` [diisopropyl ether] + CCCOC[n+]1ccc(N(C)C)cc1.O=S(=O)([N-]S(=O)(=O)C(F)(F)F)C(F)(F)F: the activity coefficient was 4.49 ± 0.31 (323.15 K), 4.54 ± 0.31 (333.15 K) and 4.12 ± 0.28 (343.15 K).

For `CC(C)OC(C)C` [diisopropyl ether] + CCCOC[n+]1ccn(C)c1.F[B-](F)(F)F, the activity coefficient is, setting by setting: (323.15 K) 32.7 ± 2.2; (333.15 K) 28.5 ± 1.9; (343.15 K) 26.4 ± 1.8.

With `CC(C)OC(C)C` [diisopropyl ether] + CCCOC[n+]1ccn(C)c1.O=S(=O)([N-]S(=O)(=O)C(F)(F)F)C(F)(F)F, the activity coefficient turned out to be 4.69 ± 0.32 (323.15 K), 4.82 ± 0.33 (333.15 K) and 4.46 ± 0.3 (343.15 K).

Consider `CC(C)OC(C)C` [diisopropyl ether] + CCCOC[n+]1ccn(Cc2ccccc2)c1.F[B-](F)(F)F, for which the activity coefficient came to 17.6 ± 1.2 (323.15 K) and 14.8 ± 1 (333.15 K).

With `CC(C)OC(C)C` [diisopropyl ether] + CCCOC[n+]1ccn(Cc2ccccc2)c1.N#C[N-]C#N, the activity coefficient stood at 12.8 ± 0.87 (323.15 K), 12.1 ± 0.83 (333.15 K) and 12 ± 0.82 (343.15 K).

For the molecule `CC(C)OC(C)C` [diisopropyl ether] + CCCOC[n+]1ccn(Cc2ccccc2)c1.O=S(=O)([N-]S(=O)(=O)C(F)(F)F)C(F)(F)F, the activity coefficient (323.15 K) is 3 ± 0.2, the activity coefficient (333.15 K) came out at 2.87 ± 0.2 and the activity coefficient (343.15 K) was 2.74 ± 0.19.

`CC(C)OC(C)C` [diisopropyl ether] + CN(C)c1cc[n+](COCCCOC[n+]2ccc(N(C)C)cc2)cc1.O=S(=O)([N-]S(=O)(=O)C(F)(F)F)C(F)(F)F.O=S(=O)([N-]S(=O)(=O)C(F)(F)F)C(F)(F)F: the activity coefficient by setting is: (323.15 K) 5.9 ± 0.4; (333.15 K) 5.72 ± 0.39; (343.15 K) 5.65 ± 0.39.

Regarding `CC(C)OC(C)C` [diisopropyl ether] + Cn1cc[n+](COCCCOC[n+]2ccn(C)c2)c1.O=S(=O)([N-]S(=O)(=O)C(F)(F)F)C(F)(F)F.O=S(=O)([N-]S(=O)(=O)C(F)(F)F)C(F)(F)F, the activity coefficient amounted to 6.31 ± 0.43 (323.15 K), 6.51 ± 0.44 (333.15 K) and 5.54 ± 0.38 (343.15 K).

Regarding `CCCCCCCCCCCC` [dodecane] + CCCCCCCCn1cc[n+](COCCCOC[n+]2ccn(CCCCCCCC)c2C)c1C.N#C[N-]C#N.N#C[N-]C#N, the activity coefficient runs as follows: (323.15 K) 28.7 ± 2; (333.15 K) 30.6 ± 2.1; (343.15 K) 27.9 ± 1.9.

On to `CCCCCCCCCCCC` [dodecane] + CCCCCCCCn1cc[n+](COCCCOC[n+]2ccn(CCCCCCCC)c2C)c1C.O=S(=O)([N-]S(=O)(=O)C(F)(F)F)C(F)(F)F.O=S(=O)([N-]S(=O)(=O)C(F)(F)F)C(F)(F)F, for which the activity coefficient by setting is: (323.15 K) 15.4 ± 1.1; (333.15 K) 13.9 ± 0.95; (343.15 K) 13.1 ± 0.89.

Consider `CCCCCCCCCCCC` [dodecane] + CCCOC[n+]1ccc(N(C)C)cc1.O=S(=O)([N-]S(=O)(=O)C(F)(F)F)C(F)(F)F, for which the activity coefficient by setting is: (323.15 K) 73.5 ± 5; (333.15 K) 69.4 ± 4.8; (343.15 K) 61.7 ± 4.2.

With `CCCCCCCCCCCC` [dodecane] + CCCOC[n+]1ccn(C)c1.F[B-](F)(F)F, the activity coefficient reads like this: (323.15 K) 1160 ± 80; (333.15 K) 1160 ± 80; (343.15 K) 1150 ± 79.

For the molecule `CCCCCCCCCCCC` [dodecane] + CCCOC[n+]1ccn(C)c1.N#C[N-]C#N, the activity coefficient is, setting by setting: (323.15 K) 802 ± 55; (333.15 K) 716 ± 49; (343.15 K) 639 ± 44.

Regarding `CCCCCCCCCCCC` [dodecane] + CCCOC[n+]1ccn(C)c1.O=S(=O)([N-]S(=O)(=O)C(F)(F)F)C(F)(F)F, the activity coefficient runs as follows: (323.15 K) 132 ± 9.1; (333.15 K) 118 ± 8.1; (343.15 K) 105 ± 7.2.
